From ChEMBL document CHEMBL2074529, “Increased sensitivity to gemcitabine of P-glycoprotein and multidrug resistance-associated protein-overexpressing human cancer cell lines” (Br J Cancer, 2003)

Columns and labels:
Format in all cases: functional, cell-based
[1] = molecular target: T1, ATP-dependent translocase ABCB1 (Homo sapiens, UniProt P08183); assay: TP_TRANSPORTER: drug resistance in MDR1-expressing BROmdr cells
[2] = molecular target: T1, ATP-dependent translocase ABCB1; assay: TP_TRANSPORTER: drug resistance in […]-expressing SWI573/SI(I.I) cells
[3] = molecular target: T1, ATP-dependent translocase ABCB1; assay: TP_TRANSPORTER: drug resistance in 2780AD cells
[4] = molecular target: T1, ATP-dependent translocase ABCB1; assay: TP_TRANSPORTER: drug resistance in 2RI60 cells

Measured: Activity

T1 sequence (P08183 whole entry): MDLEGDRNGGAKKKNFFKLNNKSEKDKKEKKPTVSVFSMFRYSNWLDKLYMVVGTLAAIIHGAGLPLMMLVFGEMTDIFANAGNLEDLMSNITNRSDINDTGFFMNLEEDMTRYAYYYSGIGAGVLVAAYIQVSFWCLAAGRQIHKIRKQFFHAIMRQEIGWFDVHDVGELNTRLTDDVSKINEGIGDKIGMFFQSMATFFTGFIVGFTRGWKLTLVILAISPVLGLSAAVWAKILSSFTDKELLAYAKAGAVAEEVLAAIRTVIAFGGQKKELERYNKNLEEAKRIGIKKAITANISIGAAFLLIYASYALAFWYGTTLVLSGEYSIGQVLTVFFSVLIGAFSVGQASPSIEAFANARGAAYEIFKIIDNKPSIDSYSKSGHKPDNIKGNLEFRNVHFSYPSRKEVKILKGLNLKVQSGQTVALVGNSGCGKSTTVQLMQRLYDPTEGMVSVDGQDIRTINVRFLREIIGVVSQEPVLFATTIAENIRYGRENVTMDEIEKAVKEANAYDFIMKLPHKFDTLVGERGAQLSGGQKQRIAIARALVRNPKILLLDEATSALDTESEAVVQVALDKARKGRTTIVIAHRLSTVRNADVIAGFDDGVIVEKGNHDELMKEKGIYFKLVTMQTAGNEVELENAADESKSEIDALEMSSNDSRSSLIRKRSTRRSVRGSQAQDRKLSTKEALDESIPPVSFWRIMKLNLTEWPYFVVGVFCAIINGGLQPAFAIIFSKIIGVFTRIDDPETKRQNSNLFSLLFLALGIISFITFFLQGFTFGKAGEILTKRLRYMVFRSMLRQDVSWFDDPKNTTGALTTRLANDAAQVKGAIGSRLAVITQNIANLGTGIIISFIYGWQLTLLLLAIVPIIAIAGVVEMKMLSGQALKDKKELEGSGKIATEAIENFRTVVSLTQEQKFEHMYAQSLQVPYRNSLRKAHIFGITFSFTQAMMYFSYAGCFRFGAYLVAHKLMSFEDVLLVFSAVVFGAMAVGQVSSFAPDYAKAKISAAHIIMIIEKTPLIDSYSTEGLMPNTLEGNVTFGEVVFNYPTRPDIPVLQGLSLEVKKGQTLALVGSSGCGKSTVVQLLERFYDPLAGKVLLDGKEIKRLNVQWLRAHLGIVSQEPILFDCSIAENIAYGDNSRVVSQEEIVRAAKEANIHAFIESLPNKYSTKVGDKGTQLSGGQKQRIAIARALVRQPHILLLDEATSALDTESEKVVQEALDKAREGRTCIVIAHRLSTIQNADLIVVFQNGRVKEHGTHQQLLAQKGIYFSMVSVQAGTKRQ

Nc1ccn([C@@H]2O[C@H](CO)[C@@H](O)C2(F)F)c(=O)n1 [GEMCITABINE]
substrate [+]: all assays above
